Measurements published in US10131652B2, “Pyrimidinyloxy benzene derivatives as herbicides” (E. I. DU PONT DE NEMOURS AND COMPANY, priority 2014, dated 2018).

Columns and labels:
Assay in all cases: Test F pre-/postemergence plant response
Format in all cases: in vivo
Conditions in all cases: scale 0 to 100
[1] = test system: lambsquarters (Chenopodium album)
Summary of the method: (§1)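 Formulation: non-phytotoxic solvent mix + surfactant. Preemergence: applied to seeded silt loam. Postemergence: foliar, 1- to 4-leaf plants, 2–18 cm. Greenhouse hold 14–21 days; visual score vs controls, 0 = no effect, 100 = complete control; dash = not tested.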

[2] = test system: morningglory (Ipomoea coccinea)
Summary of the method: as §1

[3] = test system: dayflower (Virginia (VA) dayflower, Commelina virginica)
Summary of the method: as §1

[4] = test system: johnsongrass (Sorghum halepense)
Summary of the method: as §1

[5] = test system: giant foxtail (Setaria faberii)
Summary of the method: as §1

[6] = test system: arrowleaf sida (Sida rhombifolia)
Summary of the method: as §1

[7] = test system: green foxtail (Setaria viridis)
Summary of the method: as §1

[8] = test system: waterhemp (common waterhemp, Amaranthus rudis)
Summary of the method: as §1

[9] = test system: sandbur (southern sandbur, Cenchrus echinatus)
Summary of the method: as §1

[10] = test system: palmer pigweed (Amaranthus palmeri)
Summary of the method: as §1

[11] = test system: barnyardgrass (Echinochloa crus-galli)
Summary of the method: as §1

Compound: Cc1cc(-c2ccccc2Oc2ncc(Cl)cn2)on1 [Compound 58]
- Plant response rating, Lambsquarters ([1]; 16 g ai/ha Preemergence): 0
- Plant response rating, Lambsquarters ([1]; 31 g ai/ha Preemergence): 65
- Plant response rating, Lambsquarters ([1]; 125 g ai/ha Preemergence): 100
- Plant response rating, Lambsquarters ([1]; Preemergence): 90
- Plant response rating, Morningglory ([2]; 8 g ai/ha Preemergence): 0
- Plant response rating, Morningglory ([2]; 16 g ai/ha Preemergence): 0
- Plant response rating, Morningglory ([2]; 31 g ai/ha Preemergence): 10
- Plant response rating, Morningglory ([2]; 125 g ai/ha Preemergence): 10
- Plant response rating, Morningglory ([2]; Preemergence): 10
- Plant response rating, Dayflower, VA ([3]; 8 g ai/ha Postemergence): 5
- Plant response rating, Dayflower, VA ([3]; 8 g ai/ha Preemergence): 0
- Plant response rating, Dayflower, VA ([3]; 16 g ai/ha Postemergence): 5
- Plant response rating, Dayflower, VA ([3]; 16 g ai/ha Preemergence): 0
- Plant response rating, Dayflower, VA ([3]; 31 g ai/ha Postemergence): 10
- Plant response rating, Dayflower, VA ([3]; 31 g ai/ha Preemergence): 0
- Plant response rating, Dayflower, VA ([3]; 62 g ai/ha Postemergence): 20
- Plant response rating, Dayflower, VA ([3]; 125 g ai/ha Postemergence): 10
- Plant response rating, Dayflower, VA ([3]; 125 g ai/ha Preemergence): 80
- Plant response rating, Johnsongrass ([4]; 8 g ai/ha Preemergence): 0
- Plant response rating, Johnsongrass ([4]; 16 g ai/ha Preemergence): 0
- Plant response rating, Johnsongrass ([4]; 31 g ai/ha Preemergence): 0
- Plant response rating, Johnsongrass ([4]; 125 g ai/ha Preemergence): 20
- Plant response rating, Johnsongrass ([4]; Preemergence): 0
- Plant response rating, Foxtail, Giant ([5]; 8 g ai/ha Preemergence): 0
- Plant response rating, Foxtail, Giant ([5]; 16 g ai/ha Preemergence): 0
- Plant response rating, Foxtail, Giant ([5]; 31 g ai/ha Preemergence): 0
- Plant response rating, Foxtail, Giant ([5]; 62 g ai/ha Preemergence): 0
- Plant response rating, Foxtail, Giant ([5]; 125 g ai/ha Preemergence): 40
- Plant response rating, Arrowleaf Sida ([6]; 8 g ai/ha Postemergence): 50
- Plant response rating, Arrowleaf Sida ([6]; 8 g ai/ha Preemergence): 20
- Plant response rating, Arrowleaf Sida ([6]; 16 g ai/ha Postemergence): 70
- Plant response rating, Arrowleaf Sida ([6]; 16 g ai/ha Preemergence): 0
- Plant response rating, Arrowleaf Sida ([6]; 31 g ai/ha Postemergence): 60
- Plant response rating, Arrowleaf Sida ([6]; 31 g ai/ha Preemergence): 35
- Plant response rating, Arrowleaf Sida ([6]; 62 g ai/ha Postemergence): 75
- Plant response rating, Arrowleaf Sida ([6]; 62 g ai/ha Preemergence): 75
- Plant response rating, Arrowleaf Sida ([6]; 125 g ai/ha Postemergence): 90
- Plant response rating, Arrowleaf Sida ([6]; 125 g ai/ha Preemergence): 98
- Plant response rating, Foxtail, Green ([7]; 8 g ai/ha Preemergence): 0
- Plant response rating, Foxtail, Green ([7]; 16 g ai/ha Preemergence): 0
- Plant response rating, Foxtail, Green ([7]; 31 g ai/ha Preemergence): 0
- Plant response rating, Foxtail, Green ([7]; 125 g ai/ha Preemergence): 25
- Plant response rating, Foxtail, Green ([7]; Preemergence): 0
- Plant response rating, Waterhemp ([8]; 8 g ai/ha Postemergence): 65
- Plant response rating, Waterhemp ([8]; 8 g ai/ha Preemergence): 20
- Plant response rating, Waterhemp ([8]; 16 g ai/ha Postemergence): 60
- Plant response rating, Waterhemp ([8]; 16 g ai/ha Preemergence): 75
- Plant response rating, Waterhemp ([8]; 31 g ai/ha Postemergence): 65
- Plant response rating, Waterhemp ([8]; 31 g ai/ha Preemergence): 75
- Plant response rating, Waterhemp ([8]; 62 g ai/ha Postemergence): 80
- Plant response rating, Waterhemp ([8]; 125 g ai/ha Postemergence): 90
- Plant response rating, Waterhemp ([8]; 125 g ai/ha Preemergence): 100
- Plant response rating, Waterhemp ([8]; Preemergence): 90
- Plant response rating, Sandbur ([9]; 8 g ai/ha Postemergence): 0
- Plant response rating, Sandbur ([9]; 8 g ai/ha Preemergence): 0
- Plant response rating, Sandbur ([9]; 16 g ai/ha Postemergence): 0
- Plant response rating, Sandbur ([9]; 16 g ai/ha Preemergence): 0
- Plant response rating, Sandbur ([9]; 31 g ai/ha Postemergence): 0
- Plant response rating, Sandbur ([9]; 31 g ai/ha Preemergence): 0
- Plant response rating, Sandbur ([9]; 62 g ai/ha Postemergence): 0
- Plant response rating, Sandbur ([9]; 125 g ai/ha Postemergence): 10
- Plant response rating, Sandbur ([9]; 125 g ai/ha Preemergence): 0
- Plant response rating, Sandbur ([9]; Preemergence): 0
- Plant response rating, Pigweed, Palmer ([10]; 8 g ai/ha Postemergence): 50
- Plant response rating, Pigweed, Palmer ([10]; 8 g ai/ha Preemergence): 0
- Plant response rating, Pigweed, Palmer ([10]; 16 g ai/ha Postemergence): 50
- Plant response rating, Pigweed, Palmer ([10]; 16 g ai/ha Preemergence): 0
- Plant response rating, Pigweed, Palmer ([10]; 31 g ai/ha Postemergence): 50
- Plant response rating, Pigweed, Palmer ([10]; 31 g ai/ha Preemergence): 0
- Plant response rating, Pigweed, Palmer ([10]; 62 g ai/ha Postemergence): 70
- Plant response rating, Pigweed, Palmer ([10]; 125 g ai/ha Postemergence): 60
- Plant response rating, Pigweed, Palmer ([10]; 125 g ai/ha Preemergence): 35
- Plant response rating, Pigweed, Palmer ([10]; Preemergence): 35
- Plant response rating, Barnyardgrass ([11]; 8 g ai/ha Postemergence): 0
- Plant response rating, Barnyardgrass ([11]; 8 g ai/ha Preemergence): 0
- Plant response rating, Barnyardgrass ([11]; 16 g ai/ha Postemergence): 0
- Plant response rating, Barnyardgrass ([11]; 16 g ai/ha Preemergence): 0
- Plant response rating, Barnyardgrass ([11]; 31 g ai/ha Postemergence): 0
- Plant response rating, Barnyardgrass ([11]; 31 g ai/ha Preemergence): 0
- Plant response rating, Barnyardgrass ([11]; 62 g ai/ha Postemergence): 0
- Plant response rating, Barnyardgrass ([11]; 62 g ai/ha Preemergence): 0
- Plant response rating, Barnyardgrass ([11]; 125 g ai/ha Postemergence): 5
- Plant response rating, Barnyardgrass ([11]; 125 g ai/ha Preemergence): 15
